Data taken from paper PMC8824312 (Bioorganic chemistry, 2021).
Read-outs that look alike come from different tables or passages of the source. Blank lines part the entries; values can stand above or below the molecule they belong to.

What was measured:
[1] = target: T1, Salicylate hydroxylase (NahG) (Pseudomonas putida, UniProt P23262); assay: fluorometric titration
T1 sequence (P23262 1-434): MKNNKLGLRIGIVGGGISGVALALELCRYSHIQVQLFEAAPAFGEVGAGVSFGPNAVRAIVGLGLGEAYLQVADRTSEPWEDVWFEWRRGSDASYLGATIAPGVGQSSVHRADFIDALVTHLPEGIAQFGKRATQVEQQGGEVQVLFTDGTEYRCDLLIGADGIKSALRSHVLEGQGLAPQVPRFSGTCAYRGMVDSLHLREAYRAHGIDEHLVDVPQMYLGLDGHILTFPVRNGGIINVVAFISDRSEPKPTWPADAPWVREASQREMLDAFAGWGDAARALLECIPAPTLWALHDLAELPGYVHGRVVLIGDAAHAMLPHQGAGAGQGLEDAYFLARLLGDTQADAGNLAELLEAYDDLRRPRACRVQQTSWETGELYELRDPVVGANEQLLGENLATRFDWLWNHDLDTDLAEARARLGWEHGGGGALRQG

[2] = target: T1, Salicylate hydroxylase (NahG); assay: fluorometric titration; format: binding
[3] = substrate: NC(=O)C1=CN([C@@H]2O[C@H](COP(=O)(O)OP(=O)(O)OC[C@H]3O[C@@H](n4cnc5c(N)ncnc54)[C@H](O)[C@@H]3O)[C@@H](O)[C@H]2O)C=CC1; assay: initial rate of NADH consumption, spectrophotometric; format: biochemical, Pseudomonas putida; settings: pH 8.5, I = 0.21 M (NaCl), 25 °C, salicylate, FAD as cofactor

Kd [1]: 36 ± 8 nM
Molecule: Cc1cc2nc3c(=O)[nH]c(=O)nc-3n(C[C@H](O)[C@H](O)[C@H](O)COP(=O)(O)OP(=O)(O)OC[C@H]3O[C@@H](n4cnc5c(N)ncnc54)[C@H](O)[C@@H]3O)c2cc1C [Flavin adenine dinucleotide]

Kd [1]: 2200 ± 200 nM
Molecule: Cc1cc2nc3c(=O)[nH]c(=O)nc-3n(C[C@H](O)[C@H](O)[C@H](O)COP(=O)(O)O)c2cc1C [riboflavin 5′-monophosphate]

Kd [2]: 280 ± 30 nM
Molecule: O=C(O)c1ccccc1O [salicylate]

B1: Salicylate hydroxylase (NahG) (Pseudomonas putida) (protein)
chain: T1 sequence (P23262 1-434)
Km [3]: 27 µM
